Activity calls are given as the source filed them.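 The calls were made as follows: active = mean IC50 at or below a set limit; inactive = the rest.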

This test deals with 697 B-cell NF-kB luciferase reporter, PMA/ionomycin, 16 h. Nature of the test: NF-kB luciferase reporter inhibition in 697 B cells – cell-based, luminescence, set 3, SAR follow-up (AID 504641). For orientation: Reporter assays use an easily measured gene product as a stand-in for the process of interest.
Turning to `CCOc1ccc(-c2nc(CSCC(=O)NC(C)CC)c(C)o2)cc1` (stereo not drawn), the IC50 is 46900 nM (inactive).
As to `CCCNC(=O)CSCc1nc(-c2ccc(SC)cc2)oc1C`, the IC50 is > 80000 nM (inactive).
In the case of `CCOc1ccc(-c2nc(CSCC(=O)NCCc3ccc(C)cc3)c(C)o2)cc1`, the IC50 was 18100 nM.
In the case of `CCOc1ccc(-c2nc(CSCC(=O)NC3CCCC3)c(C)o2)cc1`, the IC50 is 25700 nM (inactive).
On to `CC(C)(C)c1ccc(-c2noc(CCC(=O)N3CCCCC3)n2)cc1`, for which the IC50 was 30300 nM (inactive).
Regarding `CCOc1ccc(-c2nc(CSCC(=O)NC(C)C)c(C)o2)cc1`, the IC50 was 1240 nM.
Turning to `CCOc1ccc(-c2noc(CCC(=O)NC)n2)cc1`, the IC50 was > 80000 nM (inactive).
With `COc1ccccc1NC(=O)CCc1nc(-c2ccc(C(C)(C)C)cc2)no1`, the IC50 is under 160 nM.
As for `CCOc1ccc(-c2nc(CSCC(=O)N3CCC(C)CC3)c(C)o2)cc1`, the IC50 is 70400 nM (inactive).
Regarding `CCOc1ccc(-c2nc(CSCC(=O)NCCC3=CCCCC3)c(C)o2)cc1`, the IC50 was 36500 nM (inactive).
In the case of `CCOc1ccc(-c2nc(CSCC(=O)NC3CCCC(C)C3C)c(C)o2)cc1` (stereo not drawn), the IC50 was > 80000 nM (inactive).
Take `CCOc1ccc(-c2nc(CSCC(=O)N3CCCC3)c(C)o2)cc1`: the IC50 was > 80000 nM (inactive).
Take `C=CCNC(=O)CCc1nc(-c2ccc(C(C)(C)C)cc2)no1`: the 50% inhibitory concentration (IC50) was 190 nM.
On to `CC(C)(C)c1ccc(-c2noc(CCC(=O)NC3CCCC3)n2)cc1`, for which the IC50 is 360 nM.
As for `CCOc1ccc(-c2nc(CSCC(=O)NCc3ccccc3)c(C)o2)cc1`, the concentration for half-maximal inhibition (IC50) is 6750 nM.
Take `CC(C)CNC(=O)CCc1nc(-c2ccc(C(C)(C)C)cc2)no1`: the IC50 is 240 nM.
Next, `CCOc1ccc(-c2nc(CSCC(=O)NCc3ccc(C)cc3)c(C)o2)cc1`: 2770 nM; `CC(C)NC(=O)CCc1nc(-c2ccc(C(C)(C)C)cc2)no1`: 280 nM; `CCOc1ccc(-c2nc(CSCC(=O)NCCOC)c(C)o2)cc1`: 310 nM.
On to `COc1cccc(NC(=O)CCc2nc(-c3ccc(C(C)(C)C)cc3)no2)c1`, for which the half-maximal inhibitory concentration (IC50) is under 160 nM.
Under `CC(C)(C)c1ccc(-c2noc(CCC(=O)NC3CCCCC3)n2)cc1` stands 400 nM.
As for `CC(C)(C)c1ccc(-c2noc(CCC(=O)NCc3ccco3)n2)cc1`, the IC50 is 200 nM.
Under `CNC(=O)CCc1nc(-c2ccc(F)cc2)no1` stands > 80000 nM (inactive); under `CNC(=O)CCc1nc(-c2ccc(OC)cc2)no1`, > 80000 nM (inactive); under `CC(C)(C)c1ccc(-c2noc(CCC(=O)NCC3CCCO3)n2)cc1` (stereo not drawn), 590 nM.
In the case of `CSc1ccc(-c2nc(CSCC(=O)NC3CC3)c(C)o2)cc1`, the IC50 is 1360 nM.
Take `CCOc1ccc(-c2nc(CSCC(=O)NCc3cccnc3)c(C)o2)cc1`: the IC50 was 2380 nM.
In the case of `CCOCCCNC(=O)CSCc1nc(-c2ccc(OCC)cc2)oc1C`, the IC50 was 10300 nM.
With `CCOc1ccc(-c2nc(CSCC(=O)NCCN3CCCC3)c(C)o2)cc1`, the IC50 is 12100 nM.
Regarding `CCOc1ccc(-c2nc(CSCC(=O)NCCc3ccccc3)c(C)o2)cc1`, the IC50 is 3560 nM.
With `CC(C)(C)c1ccc(-c2noc(CCC(=O)Nc3ccccc3)n2)cc1`, the IC50 is under 160 nM.
As for `CCOc1ccc(-c2nc(CSCC(=O)NCCc3ccc(Cl)cc3)c(C)o2)cc1`, the IC50 is > 80000 nM (inactive).
As to `CCOc1ccc(-c2nc(CSCC(=O)NCC3CCCO3)c(C)o2)cc1` (stereo not drawn), the IC50 was 7840 nM.
Take `CCOc1ccccc1NC(=O)CCc1nc(-c2ccc(C(C)(C)C)cc2)no1`: the IC50 is under 160 nM.
For the compound `CC(C)(C)c1ccc(-c2noc(CCC(=O)N3CCOCC3)n2)cc1`, the IC50 was 24300 nM (inactive).
For `CC(C)(C)c1ccc(-c2noc(CCC(=O)Nc3cccnc3)n2)cc1`, the IC50 is 160 nM.
In the case of `CCOc1ccc(-c2nc(CSCC(=O)NCc3cccs3)c(C)o2)cc1`, the IC50 was 650 nM.
Consider `CCCNC(=O)CCc1nc(-c2ccc(C(C)(C)C)cc2)no1`, for which the IC50 was 190 nM.
Take `CCCCNC(=O)CSCc1nc(-c2ccc(OCC)cc2)oc1C`: the concentration for half-maximal inhibition (IC50) was 8640 nM.
Regarding `CCCNC(=O)CSCc1nc(-c2ccc(OCC)cc2)oc1C`, the IC50 was 1510 nM.
`CC(C)(C)c1ccc(-c2noc(CCC(=O)Nc3cccc([N+](=O)[O-])c3)n2)cc1`: the IC50 was under 160 nM.
As to `CNC(=O)CCc1nc(-c2ccc(C)cc2)no1`, the IC50 is > 80000 nM (inactive).
As to `CNC(=O)CCc1nc(-c2ccc(Cl)cc2)no1`, the IC50 is > 80000 nM (inactive).

In general, IC50 refers to the concentration that gives 50% inhibition.
